Results reported in US20200352889A1, “CYSTATHIONINE COMPOSITIONS AND METHODS OF TREATMENT FOR HEALTH CONDITIONS” (THE REGENTS OF THE UNIVERSITY OF COLORADO, A BODY CORPORATE, priority 2011, published 2020).
Residues, ends and D or L forms follow the SMILES beside them. *: point of attachment. Cbz = O=C(OCc1ccccc1)*; CH2F = FC*

Tests used:
[1] = test system: A293AD kidney cells; experiment: Thapsagargin-induced cell death, LDH release, A293AD kidney cells; assay type: cell-based, human
Method: It was previously shown that cystathionine can protect against ER stress induced cell death induced by the glycosylation inhibitor tunicamycin. In order to investigate if this protective effect was limited to tunicamycin, it was investigated whether cystathionine (1 mM) could protect A293AD kidney cells against ER stress induced cell death mediated by the calcium metabolism inhibitor compound thapsagargin (1 uM). Cell death was monitored by measuring LDH release into culture media. In order to investigate if cystathionine was simply blocking apoptosis, the effect of thapsagargin in the presence of the known apoptosis inhibitor Z-VAD-FMK was investigated. […] While it is not necessary to understand the mechanism of action, it is believed that 1.

[2] = test system: HepG2 cells; experiment: Tunicamycin or thapsagargin induced cell death in HepG2 cells, comparison with Z-VAD-FMK; assay type: cell-based, human; settings: p>0.05 for Z-VAD-FMK
[3] = test system: 293AD cells; experiment: Tunicamycin-induced cell death, LDH release and phase-contrast, 293AD cells; assay type: cell-based, human
Method: (§1) Cells were seeded in triplicate at ˜75% confluence and pre-treated with either PPG) (5 mM), Cystathionine (1 mM) or with just complete media (DMEM, 10% FBS) as a control. After 24 hr pre-treatment, cells looked normal, with minimal floating cells. Fresh media with 1% FBS was then added to each well, the cells were further treated with Tm (either 5 or 10 ug)/ml. After 18 hr. treatment with Tunicamycin, cells were photographed under phase-contrast with a Zeiss Axiovert 25 microscope for evidence of dead floating cells. Cells from the group treated solely with tunicamycin became strikingly hyper-refringent, detached from the substratum and floated in the media. […] To further evaluate a role for cystathionine in resisting the induction of cell death by tunicamycin, cell lysis was quantified by assaying lactate dehydrogenase (LDH) release. The enzyme activity was determined spectrophotometrically and the amount of enzyme leak was expressed as a percentage of the LDH activity observed in untreated control cells.
HepG2, 293AD and a23 cells were seeded in triplicate at ˜75% confluence and were pre-treated with either propargylglycine (PPG) (5 mM) or cystathionine (5 mM) in complete media (DMEM, 10% FBS). After 24 hours, fresh media with 1% FBS was added to each well. Cells were then further treated with tunicamycin (either 5 or 10 ug/ml) for 18 hr treatment. Cells were subsequently photographed under phase-contrast with a Zeiss Axiovert 25 microscope for evidence of dead floating cells. To quantify cell death the media supernatant was collected for LDH release assay using a kit from Roche Applied Science (Cat.No.11 644 793 001) according to the manufacturer's standard protocol where cytotoxicity (%)=((experimental value-low control/(high control-low control))×100.
as §1, with “24 hr.” for “24 hr”

[4] = test system: HepG2 cells; experiment: Tunicamycin-induced cell death, LDH release, HepG2 cells; assay type: cell-based, human; settings: data not shown
Method: as §1, with “control cells. […]” for “control cells.”
Cells were seeded in triplicate at ˜75% confluence and pre-treated with either PPG) (5 mM), Cystathionine (1 mM) or with just complete media (DMEM, 10% FBS) as a control. […] To further evaluate a role for cystathionine in resisting the induction of cell death by tunicamycin, cell lysis was quantified by assaying lactate dehydrogenase (LDH) release. […]

[5] = test system: a23 cells; experiment: Tunicamycin-induced cell death, LDH release, transsulfuration negative a23 cells; assay type: cell-based, Chinese hamster; settings: CBS and CGL negative, p<0.0001
Text: However, examination of a direct effect of exogenously added cystathionine is not currently possible in a whole animal model because of complications with the compounds solubility and rapid kinetics of its excretion. In order to investigate the direct effects of cystathionine against ER stress-induced cell death, the cytotoxicity of tunicamycin in the human embryonic kidney cell line 293AD and the human hepatoma cell line HepG2 in the presence and absence of both PPG and exogenously added cystathionine was examined. Preliminary experiments confirmed that both of these cell lines express both CBS and CGL (data not shown). In order to investigate the possible protective effects of cystathionine in the absence of transsulfuration, these experiments were repeated with the CBS and CGL negative Chinese hamster fibroblast line a23 (6).
Cells were seeded in triplicate at ˜75% confluence and pre-treated with either PPG) (5 mM), Cystathionine (1 mM) or with just complete media (DMEM, 10% FBS) as a control. […] To further evaluate a role for cystathionine in resisting the induction of cell death by tunicamycin, cell lysis was quantified by assaying lactate dehydrogenase (LDH) release. The enzyme activity was determined spectrophotometrically and the amount of enzyme leak was expressed as a percentage of the LDH activity observed in untreated control cells. […]

[6] = test system: Grp78, Grp94, GADD153; experiment: Northern and Western blotting of UPR induction in 293AD cells; assay type: cell-based, human
Method: To further assess the effect of cystathionine upon induction of the UPR and GADD153 by ER stress Northern and Western blotting experiments were performed.
Immunoblot analysis of total cell lysates was performed as described previously (4,14). Briefly, following incubation with the appropriate primary and horseradish peroxidase-conjugated secondary antibodies (Affinity Biologicals, Ancaster, ON, Canada) membranes were developed using the Renaissance® Western Blot Chemiluminescence Reagent Kit, (Perkin Elmer, Woodbridge, ON, Canada). Proteins were transferred on a nitrocellulose membrane, and probed with anti-KDEL monoclonal antibody, which recognizes Hsp70, GRP78 and GRP94 that was purchased from Stressgen Biotechnologies (SPA-827) or anti GADD153 (Santa Cruz Biotech #SC-7351). Anti-β-Actin monoclonal antibody (Sigma) was used as a loading control.
Total RNA was isolated from 293AD cells using the RNeasy® total RNA kit (Qiagen, Santa Clarita, Calif.) and resuspended in diethylpyrocarbonate (DEPC)-treated water. Quantification and purity of the RNA was assessed by A260/A280 absorption, and RNA samples with ratios greater than 1.6 were stored at […] for further analysis. Total RNA (10 μg/lane) was fractionated on 2.2 mol/L formaldehyde/1.2% agarose gels and transferred overnight onto Zeta-Probe® GT nylon membranes (Bio-Rad, Toronto, Canada) in 10×SSC. The RNA was cross-linked to the membrane using a UV crosslinker (PDI Bioscience, Toronto, Canada) before hybridization. Specific probes were generated by labeling cDNA fragments with [−32P]dCTP (NEN) using a random primed DNA labeling kit (Boehringer Mannheim, Laval, Canada). The cDNA probe for GADD153 (no. AA627477) was obtained from Genome Systems (St Louis, Mo.). The cDNA probe used for GRP78 is a full length cDNA clone that has been described previously (4). After overnight hybridization at 43° C., the membranes were washed as described by the manufacturer, exposed to x-ray film, and subjected to autoradiography.

[7] = Solubility of cystathionine in water; assay type: physicochemical
[8] = Urinary excretion of cystathionine in mice; assay type: in vivo, mouse

| Compound | reduction of total cell death ([1]; thapsagargin 1 uM) | protection against cell death induced by thapsagargin [2] | protection against cell death induced by tunicamycin [2] | reduction in cell death (LDH release) ([3]; 293AD cells, tunicamycin 10 μg/ml 18 hr, 24 hr pre-treatment PPG 5 mM or cystathionine 1 mM, p<0.0001) | floating dead cells (phase-contrast) ([3]; tunicamycin 18 hr after PPG or cystathionine pre-treatment) | protection against tunicamycin-induced cell death compared with 293AD cells [4] | reduction in tunicamycin induced cell death (LDH release) [5] | expression of Grp78, Grp94 and GADD15 in control cells ([6]; PPG 5 mM or cystathionine 5 mM, no tunicamycin) | scale of induction of Grp78, Grp94 and GADD153 in the presence of tunicamycin ([6]; tunicamycin 5 and 10 μg/ml) | cell death in cystathionine control ([1]; cystathionine 1 mM alone) | protection against thapsagargin induced cell death (LDH release) ([1]; cystathionine 1 mM, thapsagargin 1 uM) | solubility in water [7] | excretion in urine [8] |
| --- | --- | --- | --- | --- | --- | --- | --- | --- | --- | --- | --- | --- | --- |
| COC(=O)C[C@H](NC(=O)[C@H](C)NC(=O)[C@@H](NC(=O)OCc1ccccc1)C(C)C)C(=O)CF [Z-VAD-FMK] (Cbz-Val-Ala-Asp(OMe)-CH2F) | approximately 20% | only modest protection | only modest protection |  |  |  |  |  |  |  |  |  |  |
| NC(CSCC[C@@H](N)C(=O)O)C(=O)O (stereo partly drawn) [cystathionine, R—S-(2-Amino-2-carboxyethyl)-L-homocysteine] |  | much greater protective effects | much greater protective effects | 27 fold | No floating dead cells were observed | Essentially identical results | 16 fold | Neither PPG nor exogenously added cystathionine induced expression | Nor did either of these treatments significantly alter the scale of induction | No cell death was observed | highly significant protective effects | relatively low solubility in water | rapidly excreted in the urine |
